Measurements reported in patent US11008346B2, “Beta-lactamase inhibitors” (priority 2014, dated 2021).
Like-named read-outs stand apart in the source and are kept apart here.

Columns and labels:
SHV-5 β-lactamase = target: T1, SHV-5 β-lactamase (Klebsiella pneumoniae, UniProt P0A3M1); assay: β-lactamase enzyme inhibition, SHV-5; format: biochemical
T1 construct: made in house; host or cells: E. coli BL21(DE3)
Procedure: (§1) For SHV-5, Kpc-2, p99AmpC and OXA-1 β-lactamases, E. coli BL21(DE3) bacterial cells carrying expression plasmids (expressed as native untagged proteins) for the individual β-lactamases were grown in 1 L of Superbroth (Teknova Inc. Hollister, Calif.) supplemented with 100 μg/ml kanamycin selection and 1×5052 (0.5% glycerol, 0.05% glucose and 0.2% α-lactose) at 35° C. for 18-20 hours. Cells were harvested by centrifugation (4,000×g, 4° C., 20 min), resuspended in 50 ml of 10 mM HEPES pH 7.5 ( 1/20 of the initial volume). The cells were lysed by sonication (5 pulses of 45 seconds) at 45 W on ice. The lysates were clarified by centrifugation at 10,000×g for 40 minutes at 4° C. Samples were diluted 5-fold in 50 mM sodium acetate pH 5.0, stored overnight at 4° C., after which they were centrifuged at 10,000×g for 30 minutes to clarify, and filtered through 0.45 μm filters. The samples were loaded onto a 5 ml Capto S sepharose cation exchange column (GE Healthcare) pre-equilibrated with 50 mM sodium acetate pH 5.0. The column was washed with 5 column volumes of 50 mM sodium acetate pH 5.0 to wash out unbound protein and a linear gradient of NaCl (0 to 500 mM) was used to elute the protein (over 16 CV) from the column. Fractions were assayed for […] activity using Centa (Calbiochem, Gibbstown, N.J.) or Nitrocefin (EMD Millipore chemicals, Darmstadt, Germany) as a reporter β-lactamase substrate for activity in the isolated fractions. Active fractions were pooled, concentrated and further purified by gel filtration chromatography on a Superdex 75 prep grade gel filtration column (GE Healthcare, Piscataway, N.J.) pre-equilibrated in 50 mM Hepes pH 7.5, 150 mM NaCl. Active fractions were pooled, concentrated, and quantitated by BCA protein determination (Thermo Scientific, Rockford, Ill.), dialyzed into PBS and frozen at −80° C. in 20% glycerol until use.
(§2) An equal volume of diluted enzyme stock was added, and the plates were incubated at 37° C. for 15 min. Nitrocefin was used as substrate for p99 AmpC, VIM-2 and OXA-1 and dispensed into each well at a final concentration of 100 μM. Absorbance at 486 nm was immediately monitored for 10 min using a Biotek Powerwave XS2 microplate spectrophotometer using the GEN5 software package (Biotek Instruments, Winooski Vt.). In an analogous fashion, imipenem was used as substrate for KPC-2 and Cefotaxime was used for SHV-5, while changes in absorbance upon hydrolysis of the β-lactam ring were monitored at 300 nm and 260 nm respectively in UV-transparent 96-well microtiter assay plates. Maximum rates of hydrolysis were compared to those in control wells (without inhibitors), and percentages of enzyme inhibition were calculated for each concentration of inhibitor. The concentration of inhibitor needed to reduce the initial rate of hydrolysis of substrate by 50% (IC50) was calculated as the residual activity of β-lactamase at 486 nm using GraFit version 7 kinetics software package (Erithacus Software, Surrey, UK).
(§3) Using the methodology described above, examples of the current invention were evaluated for their ability to inhibit β-lactamase enzymes from all four Ambler classifications (A through D). […] NT=Not tested.

OXA-1 β-lactamase = target: T2, OXA-1 β-lactamase (Escherichia coli, UniProt P13661); assay: β-lactamase enzyme inhibition, OXA-1; format: biochemical; settings: Nitrocefin 100 μM, 486 nm; 15 min at 37° C. preincubation; read-out: IC50 OXA-1 (Class D)
T2 construct: made in house; host or cells: E. coli BL21(DE3)
T2 sequence (P13661 26-276): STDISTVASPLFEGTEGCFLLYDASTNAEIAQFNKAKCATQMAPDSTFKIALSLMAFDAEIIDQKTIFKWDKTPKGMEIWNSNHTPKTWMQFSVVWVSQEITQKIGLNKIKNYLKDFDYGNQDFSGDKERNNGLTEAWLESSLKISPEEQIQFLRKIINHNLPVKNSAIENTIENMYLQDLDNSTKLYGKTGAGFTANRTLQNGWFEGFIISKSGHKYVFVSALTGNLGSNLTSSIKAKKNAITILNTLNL
Procedure: as §1, §2, §3

[1] = test system: E. cloacae 144200 expressing Class C P99 AmpC; assay: broth microdilution MIC, E. cloacae P99; format: cell-based; settings: Fixed CAZ (ceftazidime) 4 μg/mL
From the text: (§4) To determine the ability of test compounds to potentiate the inhibition of the growth of bacterial strains that produce beta-lactamase enzymes, classic cell based broth microdilution MIC assays were employed. Six bacteria strains producing beta-lactamase enzymes were used: E. coli expressing the Class A Extended Spectrum Beta-Lactamase (ESBL) CTX-M-15, E. cloacae expressing the Class C P99, K. pneumoniae expressing the Class A carbapenemase KPC-3, P. aeruginosa expressing the Class B carbapenemase VIM-2, K pneumoniae expressing the class A carbapenemase KPC-2 and the class B carbapenemase VIM-4, and S. aureus producing the Class A penicillinase PC-1. The assay was conducted in Cation Adjusted Mueller Hinton Broth (CAMHB, BD #212322, BD Diagnostic Systems, Sparks, Md.). Bacteria strains were grown for 3-5 hours in CAMBH broth. Test compounds were added to a microtiter plate in 2-fold serial dilutions in CAMHB in a final concentration range of 32 μg/mL to 0.25 μg/ml. An overlay of CAMHB containing a Beta-lactam was added to the compounds at a final static concentration of 4 μg/ml. […] In addition to the titration of test compounds the MICs of a panel of control beta-lactams is also tested to ensure the strains are behaving consistently from test to test. Once the test compound and antibiotics are added the plates can be inoculated according to CLSI broth microdilution method. After inoculation the plates are incubated for 16-20 hours at 37° C., then the Minimal Inhibitory Concentration (MIC) of the test compound is determined visually.
(§5) Using the methodology described above, examples of the current invention were evaluated for their ability to inhibit the growth of β-lactamase-producing bacteria in the presence of a β-lactam antibiotic.
(§6) Representative results are shown in Table 4 where A represents an MIC of the fixed β-lactam antibiotic in the presence of >32 µg/mL of a β-lactamase inhibitor of exemplary compounds, B represents the MIC in the presence of between 8 and 32 µg/mL of a β-lactamase inhibitor of exemplary compounds, and C represents the MIC in the presence of ≤4 µg/mL of a β-lactamase inhibitor of exemplary compounds. NT=Not Tested.

[2] = test system: K. pneumoniae 156319 expressing KPC-3; assay: broth microdilution MIC, K. pneumoniae KPC-3; format: cell-based; settings: Fixed Mero (meropenem) 4 μg/mL
From the text: as §4, §5, §6

[3] = test system: K. pneumoniae A-1797 expressing KPC-2 and VIM-4; assay: broth microdilution MIC, K. pneumoniae KPC-2 and VIM-4; format: cell-based; settings: Fixed Mero (meropenem) 4 μg/mL
From the text: as §4, §5, §6

KPC-2 β-lactamase = target: T3, KPC-2 β-lactamase (Klebsiella pneumoniae, UniProt Q9F663); assay: β-lactamase enzyme inhibition, KPC-2; format: biochemical
T3 construct: made in house; host or cells: E. coli BL21(DE3)
T3 sequence (Q9F663 25-293, looked up): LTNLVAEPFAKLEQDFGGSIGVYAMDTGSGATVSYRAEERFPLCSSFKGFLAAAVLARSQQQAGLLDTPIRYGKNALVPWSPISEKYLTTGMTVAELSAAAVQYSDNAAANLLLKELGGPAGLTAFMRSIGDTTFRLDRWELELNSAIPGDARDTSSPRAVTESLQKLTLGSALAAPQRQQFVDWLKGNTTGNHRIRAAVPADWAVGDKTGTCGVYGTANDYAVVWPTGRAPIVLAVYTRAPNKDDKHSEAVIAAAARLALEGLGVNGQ
Procedure: as §1, §2, §3

[4] = test system: E. coli ESBL4 expressing CTX-M-15; assay: broth microdilution MIC, E. coli CTX-M-15; format: cell-based; settings: Fixed CAZ (ceftazidime) 4 μg/mL
From the text: as §4, §5, §6

p99 AmpC β-lactamase = target: T4, p99 AmpC β-lactamase (Enterobacter cloacae, UniProt P05364); assay: β-lactamase enzyme inhibition, p99 AmpC; format: biochemical
T4 construct: made in house; host or cells: E. coli BL21(DE3)
T4 sequence (P05364 21-381): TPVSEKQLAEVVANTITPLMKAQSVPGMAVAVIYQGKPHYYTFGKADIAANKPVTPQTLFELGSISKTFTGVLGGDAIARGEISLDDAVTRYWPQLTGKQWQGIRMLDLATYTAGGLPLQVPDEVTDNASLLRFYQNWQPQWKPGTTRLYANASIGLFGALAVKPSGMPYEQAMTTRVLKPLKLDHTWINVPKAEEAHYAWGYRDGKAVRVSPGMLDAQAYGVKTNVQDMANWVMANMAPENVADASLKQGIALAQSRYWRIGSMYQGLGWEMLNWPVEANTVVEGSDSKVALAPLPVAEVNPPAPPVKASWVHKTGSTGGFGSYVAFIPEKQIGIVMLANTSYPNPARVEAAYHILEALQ
Procedure: as §1, §2
Using the methodology described above, examples of the current invention were evaluated for their ability to inhibit β-lactamase enzymes from all four Ambler classifications (A through D).

[5] = target: T5, VIM-2 metallo β-lactamase (Pseudomonas aeruginosa, UniProt Q9K2N0); assay: β-lactamase enzyme inhibition, VIM-2; format: biochemical; settings: Nitrocefin 100 μM, 486 nm; 15 min at 37° C. preincubation; read-out: IC50 VIM-2 (Class B)
T5 construct: made in house; host or cells: E. coli BL21(DE3)
Procedure: For VIM-2 metallo β-lactamase, the procedure was identical with the following exceptions, first the protein was not pH adjusted to pH 5 with 50 mM sodium acetate. Second, the chromatography step was changed to a 5 ml Q sepharose anion exchange column pre-equilibrated with 50 mM Hepes pH 7.5, and elution of the protein was achieved by a linear gradient of NaCl (0-600 mM). Finally, the VIM-2 purification required a second run (3rd step) on the Q sepharose anion exchange column to achieve acceptable purity (>90%).
as §2, §3

[6] = imipenem substrate, 300 nm, 15 min at 37° C. preincubation, read-out: IC50 KPC-2 (Class A)

T1 sequence (P0A3M1 22-286): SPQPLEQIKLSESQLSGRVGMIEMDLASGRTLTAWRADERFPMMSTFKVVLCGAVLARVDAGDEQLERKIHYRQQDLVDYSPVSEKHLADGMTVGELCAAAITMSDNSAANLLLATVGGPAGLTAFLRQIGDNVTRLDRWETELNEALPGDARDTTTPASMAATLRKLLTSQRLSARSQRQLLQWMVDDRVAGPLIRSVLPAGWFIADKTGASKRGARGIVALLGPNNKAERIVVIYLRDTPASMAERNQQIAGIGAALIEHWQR

SMILES	IC50 (SHV-5 β-lactamase) [nM]	IC50 (OXA-1 β-lactamase) [nM]	MIC of exemplary compounds in presence of fixed β-lactams, E. cl. 144200 p99 AmpC [1]	MIC of exemplary compounds in presence of fixed β-lactams, K.P. 156319 KPC-3 [2]	MIC of exemplary compounds in presence of fixed β-lactams, K.P. A-1797 KPC-2 VIM-4 [3]	IC50 (KPC-2 β-lactamase) [nM]	MIC of exemplary compounds in presence of fixed β-lactams, E. coli ESBL4 CTX-M-15 [4]	IC50 (p99 AmpC β-lactamase) [nM]	IC50 [5] [nM]	IC50 (KPC-2 β-lactamase; [6]) [nM]
NS(=O)(=O)CCC(=O)N[C@H]1Cc2cccc(C(=O)O)c2OB1O [Example 35, (R)-2-Hydroxy-3-(3-sulfamoyl-propionylamino)-3,4-dihydro-2H-benzo[e][1,2]oxaborinin-8-carboxylic acid]	< 100	< 100	C (C represents the MIC in the presence of ≤4 g/mL of a β-lactamase inhibitor)	C (C represents the MIC in the presence of ≤4 g/mL of a β-lactamase inhibitor)	C (C represents the MIC in the presence of ≤4 g/mL of a β-lactamase inhibitor)	< 100	C (C represents the MIC in the presence of ≤4 g/mL of a β-lactamase inhibitor)	< 100	100 to 1000	
CC(=O)CCC(=O)N[C@H]1Cc2ccc(F)c(C(=O)O)c2OB1O [Example 47, (R)-7-Fluoro-2-hydroxy-3-(4-oxo-pentanoylamino)-3,4-dihydro-2H-benzo[e][1,2]oxaborinine-8-carboxylic acid]	< 100	< 100	C (C represents the MIC in the presence of ≤4 g/mL of a β-lactamase inhibitor)	C (C represents the MIC in the presence of ≤4 g/mL of a β-lactamase inhibitor)	C (C represents the MIC in the presence of ≤4 g/mL of a β-lactamase inhibitor)		C (C represents the MIC in the presence of ≤4 g/mL of a β-lactamase inhibitor)	< 100	< 100	< 100
O=C(CNC(=O)c1ccccc1)N[C@H]1Cc2cccc(C(=O)O)c2OB1O [Example 60, (R)-3-(2-Benzoylamino-acetylamino)-2-hydroxy-3,4-dihydro-2H-benzo[e][1,2]oxaborinine-8-carboxylic acid]	< 100		C (C represents the MIC in the presence of ≤4 g/mL of a β-lactamase inhibitor)	B (B represents the MIC in the presence of between 8 and 32 g/mL of a β-lactamase inhibitor)	B (B represents the MIC in the presence of between 8 and 32 g/mL of a β-lactamase inhibitor)		C (C represents the MIC in the presence of ≤4 g/mL of a β-lactamase inhibitor)	< 100	10000 to 100000	< 100
